Reference: patent publication US7495100B2, “Synthesis of indenoisoquinolines” (Purdue Research Foundation, priority 2004, dated 2009)
Where two headings read alike, the source gives them in different places.

Tests used:
HCT-116 = assay: NCI screen antiproliferative activity, colon HCT-116; type: cell-based, human; conditions: concentration corresponding to 50% growth inhibition, read-out: cytotoxicity GI50 colon HCT-116
Description: (§1) The indenoisoquinolines described herein were examined for antiproliferative activity against the human cancer cell lines in the National Cancer Institute screen, in which the activity of each compound was evaluated with approximately 55 different cancer cell lines of diverse tumor origins. The MGM is based on a calculation of the average GI50 for all of the cell lines tested (approximately 55) in which GI50 values below and above the test range (10^−8 to 10^−4 molar) are taken as the minimum (10^−8 molar) and maximum (10^−4 molar) drug concentrations used in the screening test. The relative potencies of the compounds described herein in the production of topoisomerase I-mediated DNA cleavage are also listed in Table 1.

DU-145 = assay: NCI screen antiproliferative activity, prostate DU-145; type: cell-based, human; conditions: concentration corresponding to 50% growth inhibition, read-out: cytotoxicity GI50 prostate DU-145
Description: as §1

SF-268 = assay: NCI screen antiproliferative activity, CNS SF-268; type: cell-based, human; conditions: concentration corresponding to 50% growth inhibition, read-out: cytotoxicity GI50 CNS SF-268
Description: as §1

OVCAR-3 = assay: NCI screen antiproliferative activity, ovarian OVCAR-3; type: cell-based, human; conditions: concentration corresponding to 50% growth inhibition, read-out: cytotoxicity GI50 ovarian OVCAR-3
Description: as §1

HOP-62 = assay: NCI screen antiproliferative activity, lung HOP-62; type: cell-based, human; conditions: concentration corresponding to 50% growth inhibition, read-out: cytotoxicity GI50 lung HOP-62
Description: as §1

UACC-62 = assay: NCI screen antiproliferative activity, melanoma UACC-62; type: cell-based, human; conditions: concentration corresponding to 50% growth inhibition, read-out: cytotoxicity GI50 melanoma UACC-62
Description: as §1

topoisomerase I (top1) = target: T1, topoisomerase I (top1) (Homo sapiens, UniProt P11387); assay: topoisomerase I-mediated DNA cleavage; type: biochemical; set-up: key: +: weak activity; ++: similar activity as the parent compound 25; +++: greater activity than the parent compound 25; ++++: similar activity as 1 μM camptothecin; conditions: tested at concentrations ranging up to 10 μM; semi-quantitative
T1 sequence (P11387 1-765): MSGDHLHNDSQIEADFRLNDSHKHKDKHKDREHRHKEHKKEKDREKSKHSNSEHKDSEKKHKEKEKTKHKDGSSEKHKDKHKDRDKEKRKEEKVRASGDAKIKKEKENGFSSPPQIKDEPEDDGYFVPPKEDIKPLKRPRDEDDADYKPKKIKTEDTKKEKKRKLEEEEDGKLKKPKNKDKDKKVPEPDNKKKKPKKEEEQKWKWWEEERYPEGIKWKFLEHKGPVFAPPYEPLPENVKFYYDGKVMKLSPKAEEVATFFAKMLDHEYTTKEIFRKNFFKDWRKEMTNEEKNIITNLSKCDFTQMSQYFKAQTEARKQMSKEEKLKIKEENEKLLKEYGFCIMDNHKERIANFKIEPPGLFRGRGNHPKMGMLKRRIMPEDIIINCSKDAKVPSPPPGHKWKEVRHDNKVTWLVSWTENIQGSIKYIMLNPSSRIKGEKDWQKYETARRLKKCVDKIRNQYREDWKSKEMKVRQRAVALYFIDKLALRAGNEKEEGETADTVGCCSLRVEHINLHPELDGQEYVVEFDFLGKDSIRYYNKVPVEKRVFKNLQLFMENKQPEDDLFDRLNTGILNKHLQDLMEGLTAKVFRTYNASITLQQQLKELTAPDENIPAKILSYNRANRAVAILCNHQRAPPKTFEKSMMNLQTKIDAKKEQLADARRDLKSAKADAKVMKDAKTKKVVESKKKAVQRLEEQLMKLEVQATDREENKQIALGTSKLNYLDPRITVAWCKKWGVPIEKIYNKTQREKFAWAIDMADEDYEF
Description: as §1

[1] = test system: human cancer cell lines in the National Cancer Institute screen; assay: NCI screen mean graph midpoint over approximately 55 cancer cell lines; type: cell-based; conditions: for MGM (mean graph midpoint for growth inhibition): average GI50 of all human cancer cell lines tested (approximately 55), test range 10^-8 to 10^-4 molar
Description: as §1

MDA-MB-435 = assay: NCI screen antiproliferative activity, breast MDA-MB-435; type: cell-based, human; conditions: concentration corresponding to 50% growth inhibition, read-out: cytotoxicity GI50 breast MDA-MB-435
Description: as §1

SN12C = assay: NCI screen antiproliferative activity, renal SN12C; type: cell-based, human; conditions: concentration corresponding to 50% growth inhibition, read-out: cytotoxicity GI50 renal SN12C
Description: as §1

[2] = average GI50 of all cell lines tested

Row | Structure (SMILES) | GI50 (HCT-116) [µM] | GI50 (DU-145) [µM] | GI50 (SF-268) [µM] | GI50 (OVCAR-3) [µM] | GI50 (HOP-62) [µM] | GI50 (UACC-62) [µM] | Top 1 Cleavage (topoisomerase I (top1)) | activity (MGM) [1, 2] [nm] | MGM (mean graph midpoint for growth inhibition) [1] [µM] | GI50 (MDA-MB-435) [µM] | GI50 (SN12C) [µM] | cytotoxicity (MGM) as stated in text [1, 2] [nM] | GI50 (HCT-116; Homo sapiens, HCT-116) [µM] | GI50 (DU-145; Homo sapiens, DU-145) [µM] | GI50 (SF-268; Homo sapiens, SF-268) [µM] | GI50 (OVCAR-3; Homo sapiens, OVCAR-3) [µM] | GI50 (HOP-62; Homo sapiens, HOP-62) [µM] | GI50 (UACC-62; Homo sapiens, UACC-62) [µM] | GI50 (MDA-MB-435; Homo sapiens, MDA-MB-435) [µM] | GI50 (SN12C; Homo sapiens, SN12C) [µM]
1 | O=C1c2cc3c(cc2C2C1c1ccc([N+](=O)[O-])cc1C(=O)N2CCCCl)OCO3 (racemic) [Compound 13] | < 0.01 | < 0.01 | < 0.01 | < 0.01 | < 0.01 | < 0.01 | + | 18 | 0.018 ± 0.001 | < 0.01 | < 0.01 |  |  |  |  |  |  |  |  | 
2 | O=C1c2ccccc2-c2c1c1ccc([N+](=O)[O-])cc1c(=O)n2CCCBr [Compound 20] | 3.45 | > 100 | > 100 | > 100 |  | > 100 | 0 |  | 40 | > 100 | > 100 |  |  |  |  |  |  |  |  | 
3 | [N-]=[N+]=NCCCn1c2c(c3ccc([N+](=O)[O-])cc3c1=O)C(=O)c1cc3c(cc1-2)OCO3 [Compound 16] | < 0.01 | < 0.01 | < 0.01 | < 0.01 | < 0.01 | < 0.01 | ++++ |  | 0.098 ± 0.06 | < 0.01 | < 0.01 | 98 |  |  |  |  |  |  |  | 
4 | O=C1c2ccccc2-c2c1c1ccc([N+](=O)[O-])cc1c(=O)n2CCCCl [Compound 22] |  |  |  |  |  |  |  |  | 18.2 |  |  |  | 3.63 | 40.7 | 23.4 | 4.9 | 43.7 | 20.4 | 31.6 | 26.9
5 | O=C1c2cc3c(cc2C2C1c1ccc([N+](=O)[O-])cc1C(=O)N2CCCBr)OCO3 (racemic) [Compound 12] | < 0.01 | < 0.01 | < 0.01 | < 0.01 | < 0.01 | < 0.01 | + | 16 | 0.016 ± 0.003 | < 0.01 | < 0.01 |  |  |  |  |  |  |  |  | 
6 | [N-]=[N+]=NCCCn1c2c(c3ccc([N+](=O)[O-])cc3c1=O)C(=O)c1ccccc1-2 [Compound 23] |  |  |  |  |  |  |  |  | 13.5 |  |  |  | 8.13 | > 100 | 79.4 |  | > 100 | 44.7 | > 100 | 72.4
7 | Cl.Nc1ccc2c3c(n(CCCCl)c(=O)c2c1)-c1cc2c(cc1C3=O)OCO2 [Compound 18] |  |  | > 100 | > 100 |  | > 100 | 0 |  | 25 | > 100 | > 100 |  |  |  |  |  |  |  |  | 
8 | O=C1c2cc3c(cc2-c2c1c1ccc([N+](=O)[O-])cc1c(=O)n2CCCCl)OCO3 [Compound 15] | 2.4 | 0.098 | 0.148 | 9.12 | 0.41 | 0.229 | +++ |  | 0.832 | 1.82 | 0.132 |  |  |  |  |  |  |  |  | 
9 | Cl.NCCCn1c2c(c3ccc([N+](=O)[O-])cc3c1=O)C(=O)c1ccccc1-2 [Compound 24] | 0.085 | 0.148 | 0.302 |  | 0.275 | 0.372 |  |  | 0.245 |  | 0.102 |  |  |  |  |  |  |  |  | 
10 | CN1C(=O)c2cc([N+](=O)[O-])ccc2C2C(=O)c3cc4c(cc3C21)OCO4 (racemic) [Compound 14] | 0.014 | 0.05 | 0.024 | 0.03 | 0.158 | 0.026 | +++ |  | 0.105 ± 0.007 | 0.107 | 0.033 |  |  |  |  |  |  |  |  | 
